What was measured:
[1] = system: NCI-H64; experiment: cells; format: functional, cell-based, Homo sapiens; conditions: Homo sapiens, NCI-H64;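 further: growth inhibition of NCI-H64 cells, read out with a cell viability assay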
Description: SANGER: Inhibition of human NCI-H64 cell growth in a cell viability assay.

[2] = system: D-336MG; experiment: cells; format: functional, cell-based, Homo sapiens; conditions: Homo sapiens, D-336MG
Description: SANGER: Inhibition of human D-336MG cell growth in a cell viability assay.

[3] = system: CAL-33; experiment: cells; format: functional, cell-based; conditions: Homo sapiens;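 further: growth inhibition of CAL-33 cells, read out with a cell viability assay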
Description: SANGER: Inhibition of human CAL-33 cell growth in a cell viability assay.

[4] = system: LOUCY; experiment: cells; format: functional, cell-based, Homo sapiens; conditions: Homo sapiens, LOUCY;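 further: growth inhibition of human LOUCY cells, read out with a cell viability assay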
Description: SANGER: Inhibition of human LOUCY cell growth in a cell viability assay.

[5] = system: CAPAN-1; experiment: cells; format: functional, cell-based; conditions: Homo sapiens;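 further: growth suppression of CAPAN-1 cells, read out by a cell viability assay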
Description: SANGER: Inhibition of human CAPAN-1 cell growth in a cell viability assay.

[6] = system: IGR-1; experiment: cells; format: functional, cell-based; conditions: Homo sapiens;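 further: growth inhibition of human IGR-1 cells, read out with a cell viability assay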
Description: SANGER: Inhibition of human IGR-1 cell growth in a cell viability assay.

[7] = system: MC-IXC; experiment: cells; format: functional, cell-based; conditions: Homo sapiens;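 further: growth inhibition of MC-IXC cells, read out with a cell viability assay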
Description: SANGER: Inhibition of human MC-IXC cell growth in a cell viability assay.

[8] = system: EB-3; experiment: cells; format: functional, cell-based, Homo sapiens; conditions: Homo sapiens, EB-3;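 further: human EB-3 cells, growth inhibition read out via a cell viability assay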
Description: SANGER: Inhibition of human EB-3 cell growth in a cell viability assay.

[9] = system: NCI-H2141; experiment: cells; format: functional, cell-based, Homo sapiens; conditions: Homo sapiens, NCI-H2141;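 further: growth inhibition of human NCI-H2141 cells, read out with a cell viability assay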
Description: SANGER: Inhibition of human NCI-H2141 cell growth in a cell viability assay.

[10] = system: RERF-LC-MS; experiment: cells; format: functional, cell-based; conditions: Homo sapiens;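 further: growth inhibition of human RERF-LC-MS cells, read out by a cell viability assay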
Description: SANGER: Inhibition of human RERF-LC-MS cell growth in a cell viability assay.

[11] = system: RCM-1; experiment: cells; format: functional, cell-based; conditions: Homo sapiens;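 further: growth inhibition of the RCM-1 line, determined with a cell viability readout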
Description: SANGER: Inhibition of human RCM-1 cell growth in a cell viability assay.

[12] = system: TYK-nu; experiment: cells; format: functional, cell-based; conditions: Homo sapiens;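 further: growth inhibition of human TYK-nu cells, read out by a cell viability assay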
Description: SANGER: Inhibition of human TYK-nu cell growth in a cell viability assay.

[13] = system: NCI-H522; experiment: cells; format: functional, cell-based; conditions: Homo sapiens;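 further: cell viability assay measuring growth inhibition of human NCI-H522 cells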
Description: SANGER: Inhibition of human NCI-H522 cell growth in a cell viability assay.

[14] = system: NCI-H1437; experiment: cells; format: functional, cell-based; conditions: Homo sapiens;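 further: growth inhibition of human NCI-H1437 cells, read out by a cell viability assay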
Description: SANGER: Inhibition of human NCI-H1437 cell growth in a cell viability assay.

[15] = system: M059J; experiment: cells; format: functional, cell-based; conditions: Homo sapiens;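 further: growth inhibition of M059J cells, read out with a cell viability assay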
Description: SANGER: Inhibition of human M059J cell growth in a cell viability assay.

[16] = system: BC1 cell line; experiment: SANGER: Inhibition of human BC-1 cell growth in a cell viability assay.; format: functional, cell-based; conditions: Homo sapiens, BC1
[17] = system: Kasumi 1; experiment: cells; format: functional, cell-based, Homo sapiens; conditions: Homo sapiens, Kasumi 1;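 further: growth inhibition of human Kasumi-1 cells, read out by a cell viability assay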
Description: SANGER: Inhibition of human KASUMI-1 cell growth in a cell viability assay.

[18] = system: SK-OV-3; experiment: cells; format: functional, cell-based; conditions: Homo sapiens;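 further: growth inhibition of SK-OV-3 human cells, read out with a cell viability assay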
Description: SANGER: Inhibition of human SK-OV-3 cell growth in a cell viability assay.

[19] = system: LK-2; experiment: cells; format: functional, cell-based; conditions: Homo sapiens;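 further: growth inhibition of LK-2 cells, read out with a viability assay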
Description: SANGER: Inhibition of human LK-2 cell growth in a cell viability assay.

[20] = system: MDA-MB-453; experiment: cells; format: functional, cell-based; conditions: Homo sapiens
Description: SANGER: Inhibition of human MDA-MB-453 cell growth in a cell viability assay.

[21] = system: EGI-1; experiment: cells; format: functional, cell-based; conditions: Homo sapiens;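 further: cell viability readout used to gauge growth inhibition of EGI-1 cells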
Description: SANGER: Inhibition of human EGI-1 cell growth in a cell viability assay.

[22] = system: BXPC-3; experiment: cells; format: functional, cell-based; conditions: Homo sapiens;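 further: growth inhibition of human BxPC-3 cells, read out by a cell viability assay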
Description: SANGER: Inhibition of human BxPC-3 cell growth in a cell viability assay.

[23] = system: CHP-126; experiment: cells; format: functional, cell-based, Homo sapiens; conditions: Homo sapiens, CHP-126
Description: SANGER: Inhibition of human CHP-126 cell growth in a cell viability assay.

[24] = system: FTC-133; experiment: cells; format: functional, cell-based; conditions: Homo sapiens
[25] = system: SCC-9; experiment: cells; format: functional, cell-based; conditions: Homo sapiens;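 further: Read-out is a cell viability assay, with values giving inhibition of cell growth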
Description: SANGER: Inhibition of human SCC-9 cell growth in a cell viability assay.

[26] = system: KYSE-150 cell line; experiment: cells; format: functional, cell-based; conditions: Homo sapiens;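 further: growth inhibition of human KYSE-150 cells, read out with a cell viability assay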
Description: SANGER: Inhibition of human KYSE-150 cell growth in a cell viability assay.

[27] = system: J82; experiment: cells; format: functional, cell-based; conditions: Homo sapiens;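 further: growth inhibition of J82 cells, read out with a cell viability assay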
Description: SANGER: Inhibition of human J82 cell growth in a cell viability assay.

[28] = system: Hs-578T; experiment: cells; format: functional, cell-based; conditions: Homo sapiens
Description: SANGER: Inhibition of human Hs-578-T cell growth in a cell viability assay.

[29] = system: P12-Ichikawa; experiment: cells; format: functional, cell-based; conditions: Homo sapiens
[30] = system: GP5d; experiment: cells; format: functional, cell-based; conditions: Homo sapiens;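 further: growth inhibition of human GP5d cells, read out with a cell viability assay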
Description: SANGER: Inhibition of human GP5d cell growth in a cell viability assay.

[31] = system: KYSE-510; experiment: cells; format: functional, cell-based; conditions: Homo sapiens;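 further: cell viability readout used to measure how strongly growth of the cell line is suppressed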
Description: SANGER: Inhibition of human KYSE-510 cell growth in a cell viability assay.

[32] = system: G-401; experiment: cells; format: functional, cell-based; conditions: Homo sapiens
Description: SANGER: Inhibition of human G-401 cell growth in a cell viability assay.

[33] = system: HCC70; experiment: cells; format: functional, cell-based; conditions: Homo sapiens;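 further: cell viability assay measuring how strongly the compound suppresses proliferation of HCC70 cells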
Description: SANGER: Inhibition of human HCC70 cell growth in a cell viability assay.

[34] = system: NCI-H596; experiment: cells; format: functional, cell-based; conditions: Homo sapiens;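 further: growth inhibition of NCI-H596 cells, read out with a cell viability assay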
Description: SANGER: Inhibition of human NCI-H596 cell growth in a cell viability assay.

[35] = system: FaDu; experiment: cells; format: functional, cell-based; conditions: Homo sapiens;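 further: cell viability readout of growth inhibition in FaDu cells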
Description: SANGER: Inhibition of human FADU cell growth in a cell viability assay.

[36] = system: NCI-H1963; experiment: cells; format: functional, cell-based, Homo sapiens; conditions: Homo sapiens, NCI-H1963
Description: SANGER: Inhibition of human NCI-H1963 cell growth in a cell viability assay.

[37] = system: HCC1395; experiment: cells; format: functional, cell-based; conditions: Homo sapiens;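 further: growth inhibition of HCC1395 cells, read out by a cell viability assay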
Description: SANGER: Inhibition of human HCC1395 cell growth in a cell viability assay.

[38] = system: HPAF-II; experiment: cells; format: functional, cell-based; conditions: Homo sapiens;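 further: growth inhibition of HPAF-II cells, read out with a cell viability assay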
Description: SANGER: Inhibition of human HPAF-II cell growth in a cell viability assay.

[39] = system: HT55; experiment: cells; format: functional, cell-based; conditions: Homo sapiens;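 further: cell viability readout measuring growth inhibition of human HT55 cells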
Description: SANGER: Inhibition of human HT55 cell growth in a cell viability assay.

[40] = system: Ca-Ski; experiment: cells; format: functional, cell-based; conditions: Homo sapiens;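 further: cell viability assay measuring inhibition of Ca-Ski cell growth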
Description: SANGER: Inhibition of human Ca-Ski cell growth in a cell viability assay.

[41] = system: SR; experiment: cells; format: functional, cell-based, Homo sapiens; conditions: Homo sapiens, SR
Description: SANGER: Inhibition of human SR cell growth in a cell viability assay.

[42] = system: PF-382; experiment: cells; format: functional, cell-based, Homo sapiens; conditions: Homo sapiens, PF-382
Description: SANGER: Inhibition of human PF-382 cell growth in a cell viability assay.

[43] = system: NCI-H441; experiment: cells; format: functional, cell-based; conditions: Homo sapiens;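 further: growth inhibition of NCI-H441 cells, read out with a cell viability assay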
Description: SANGER: Inhibition of human NCI-H441 cell growth in a cell viability assay.

[44] = system: MDA-MB-361; experiment: cells; format: functional, cell-based; conditions: Homo sapiens
[45] = system: OPM-2; experiment: cells; format: functional, cell-based, Homo sapiens; conditions: Homo sapiens, OPM-2;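 further: growth of OPM-2 cells measured with a viability assay, IC50 for suppression of proliferation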
Description: SANGER: Inhibition of human OPM-2 cell growth in a cell viability assay.

[46] = system: CAL-120; experiment: cells; format: functional, cell-based; conditions: Homo sapiens;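 further: cell growth inhibition, read out as cell viability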
Description: SANGER: Inhibition of human CAL-120 cell growth in a cell viability assay.

[47] = system: RPMI-2650; experiment: cells; format: functional, cell-based; conditions: Homo sapiens
Description: SANGER: Inhibition of human RPMI-2650 cell growth in a cell viability assay.

[48] = system: MEL-HO; experiment: cells; format: functional, cell-based; conditions: Homo sapiens
Description: SANGER: Inhibition of human MEL-HO cell growth in a cell viability assay.

[49] = system: HO-1-N-1; experiment: cells; format: functional, cell-based; conditions: Homo sapiens;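 further: growth inhibition of human HO-1-N-1 cells, read out with a cell viability assay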
Description: SANGER: Inhibition of human HO-1-N-1 cell growth in a cell viability assay.

[50] = system: MG-63; experiment: cells; format: functional, cell-based; conditions: Homo sapiens;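 further: growth inhibition of human MG-63 cells, read out with a cell viability assay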
Description: SANGER: Inhibition of human MG-63 cell growth in a cell viability assay.

[51] = system: DOK; experiment: cells; format: functional, cell-based; conditions: Homo sapiens;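 further: cell viability assay read-out, values reflect inhibition of cell growth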
Description: SANGER: Inhibition of human DOK cell growth in a cell viability assay.

[52] = system: NCI-H1436; experiment: cells; format: functional, cell-based, Homo sapiens; conditions: Homo sapiens, NCI-H1436;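 further: growth suppression of human NCI-H1436 cells, determined with a cell viability readout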
Description: SANGER: Inhibition of human NCI-H1436 cell growth in a cell viability assay.

[53] = system: SCLC-21H; experiment: cells; format: functional, cell-based, Homo sapiens; conditions: Homo sapiens, SCLC-21H;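 further: growth inhibition of cultured human SCLC-21H cells, read out with a cell viability assay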
Description: SANGER: Inhibition of human SCLC-21H cell growth in a cell viability assay.

[54] = system: KYSE-140; experiment: cells; format: functional, cell-based; conditions: Homo sapiens;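 further: cell viability assay measuring growth inhibition in human KYSE-140 cells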
Description: SANGER: Inhibition of human KYSE-140 cell growth in a cell viability assay.

[55] = system: A2780; experiment: cells; format: functional, cell-based; conditions: Homo sapiens;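 further: growth inhibition of A2780 cells, read out with a cell viability assay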
Description: SANGER: Inhibition of human A2780 cell growth in a cell viability assay.

[56] = system: YKG-1; experiment: cells; format: functional, cell-based; conditions: Homo sapiens;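 further: cell growth inhibition, read out with a viability assay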
Description: SANGER: Inhibition of human YKG-1 cell growth in a cell viability assay.

[57] = system: HC-1; experiment: cells; format: functional, cell-based, Homo sapiens; conditions: Homo sapiens, HC-1;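 further: growth inhibition of HC-1 cells measured by a cell viability assay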
Description: SANGER: Inhibition of human HC-1 cell growth in a cell viability assay.

[58] = system: K052; experiment: cells; format: functional, cell-based, Homo sapiens; conditions: Homo sapiens, K052;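 further: Read-out from a cell viability assay, IC50 reflecting suppression of K052 cell growth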
Description: SANGER: Inhibition of human K052 cell growth in a cell viability assay.

[59] = system: NCI-H2171; experiment: cells; format: functional, cell-based, Homo sapiens; conditions: Homo sapiens, NCI-H2171;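 further: growth inhibition of human NCI-H2171 cells, read out by a cell viability assay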
Description: SANGER: Inhibition of human NCI-H2171 cell growth in a cell viability assay.

With `Cc1ccc(C(=O)Nc2ccc(CN3CCN(C)CC3)c(C(F)(F)F)c2)cc1C#Cc1cnc2cccnn12` [PONATINIB] the IC50 [1] was > 512 nM, the IC50 [2] was > 512 nM and the IC50 [3] was > 512 nM. The IC50 [4] was > 512 nM, the IC50 [5] was > 512 nM and the IC50 [6] was > 512 nM. The IC50 [7] was > 512 nM, the IC50 [8] was > 512 nM and the IC50 [9] was > 512 nM. For the same compound, the IC50 [10] was > 512 nM, the IC50 [11] was > 512 nM and the IC50 [12] was > 512 nM. The IC50 [13] was 453 nM, the IC50 [14] was > 512 nM and the IC50 [15] was > 512 nM. For the same compound, the IC50 [16] was > 512 nM, the IC50 [17] was 2.17 nM and the IC50 [18] was > 512 nM. The IC50 [19] was > 512 nM, the IC50 [20] was > 512 nM and the IC50 [21] was > 512 nM. The IC50 [22] was 350 nM, the IC50 [23] was > 512 nM and the IC50 [24] was > 512 nM. The IC50 [25] was > 512 nM, the IC50 [26] was 424 nM and the IC50 [27] was > 512 nM. For the same compound, the IC50 [28] was > 512 nM, the IC50 [29] was > 512 nM and the IC50 [30] was > 512 nM. The IC50 [31] was > 512 nM, the IC50 [32] was > 512 nM and the IC50 [33] was > 512 nM. For the same compound, the IC50 [34] was > 512 nM, the IC50 [35] was > 512 nM and the IC50 [36] was > 512 nM. For the same compound, the IC50 [37] was > 512 nM, the IC50 [38] was > 512 nM and the IC50 [39] was > 512 nM. The IC50 [40] was > 512 nM, the IC50 [41] was > 512 nM and the IC50 [42] was 209 nM. For the same compound, the IC50 [43] was > 512 nM, the IC50 [44] was > 512 nM and the IC50 [45] was 365 nM. For the same compound, the IC50 [46] was 476 nM, the IC50 [47] was > 512 nM and the IC50 [48] was > 512 nM. The IC50 [49] was > 512 nM, the IC50 [50] was > 512 nM and the IC50 [51] was > 512 nM. The IC50 [52] was > 512 nM, the IC50 [53] was > 512 nM and the IC50 [54] was > 512 nM. For the same compound, the IC50 [55] was 343 nM, the IC50 [56] was > 512 nM and the IC50 [57] was > 512 nM. The IC50 [58] was > 512 nM.

`COC(=O)[C@H](CCSC)NC(=O)c1ccc(NC[C@@H](N)CS)cc1-c1ccccc1` was tested, and the IC50 [1] was > 1020 nM, the IC50 [2] was > 1020 nM and the IC50 [3] was > 1020 nM. For the same compound, the IC50 [4] was > 1020 nM, the IC50 [5] was > 1020 nM and the IC50 [6] was > 1020 nM. The IC50 [7] was > 1020 nM, the IC50 [8] was > 1020 nM and the IC50 [9] was > 1020 nM. For the same compound, the IC50 [10] was > 1020 nM, the IC50 [11] was > 1020 nM and the IC50 [59] was > 1020 nM. The IC50 [12] was > 1020 nM, the IC50 [13] was > 1020 nM and the IC50 [14] was > 1020 nM. For the same compound, the IC50 [15] was > 1020 nM, the IC50 [16] was > 1020 nM and the IC50 [17] was > 1020 nM. The IC50 [18] was > 1020 nM, the IC50 [19] was > 1020 nM and the IC50 [20] was > 1020 nM. The IC50 [21] was > 1020 nM, the IC50 [22] was > 1020 nM and the IC50 [23] was > 1020 nM. For the same compound, the IC50 [24] was > 1020 nM, the IC50 [25] was > 1020 nM and the IC50 [26] was > 1020 nM. The IC50 [27] was > 1020 nM, the IC50 [28] was > 1020 nM and the IC50 [29] was > 1020 nM. The IC50 [30] was > 1020 nM, the IC50 [31] was > 1020 nM and the IC50 [32] was > 1020 nM. For the same compound, the IC50 [33] was > 1020 nM, the IC50 [34] was > 1020 nM and the IC50 [35] was > 1020 nM. For the same compound, the IC50 [36] was > 1020 nM, the IC50 [37] was > 1020 nM and the IC50 [38] was > 1020 nM. The IC50 [39] was > 1020 nM, the IC50 [40] was > 1020 nM and the IC50 [41] was > 1020 nM. The IC50 [42] was > 1020 nM, the IC50 [43] was > 1020 nM and the IC50 [44] was > 1020 nM. For the same compound, the IC50 [45] was > 1020 nM, the IC50 [46] was > 1020 nM and the IC50 [47] was > 1020 nM. For the same compound, the IC50 [48] was > 1020 nM, the IC50 [49] was > 1020 nM and the IC50 [50] was > 1020 nM. For the same compound, the IC50 [51] was > 1020 nM, the IC50 [52] was > 1020 nM and the IC50 [53] was > 1020 nM. For the same compound, the IC50 [54] was > 1020 nM, the IC50 [55] was > 1020 nM and the IC50 [56] was > 1020 nM. The IC50 [57] was > 1020 nM and the IC50 [58] was > 1020 nM.

From ChEMBL document CHEMBL1201861, “Genomics of Drug Sensitity in Cancer screening data, Wellcome Trust Sanger Institute”
